Laboratory results reported in US20200000793A1, “TOPICAL FORMULATIONS OF TARGETED NITROXIDE AGENTS” (University of Pittsburgh - Of the Commonwealth System of …, priority 2011, published 2020).

Experiments:
human skin = assay: Living human skin samples, 60 GY irradiation followed by topical JP4-039: oxidative skin damage
Experimental: Oxidative skin damage directly correlates with epidermal thickening, an increase in apoptotic (dying) cells (measured by TUNEL and Caspase release) and an increase in 8-oxoguanine positive cells. Further, oxidative damage is a result of free radical formation that correlates with increases in carbonylated proteins and reduced levels of GSH. […] Living human skin samples were divided and groups of skin samples were treated with either 60 GY irradiation (60 GY), 60 GY followed by topical JP4-039(60 GY+JP4-039), 60 GY followed by formulation without JP4-039(60 GY+Formulation), or were cultured without irradiation (0 GY CONTROL). Photographs in FIG. 10 a) are representative H&E sections (400×). […] In FIG. 10 c) sections were stained with antibody against 8-oxoguanine followed by DAB and counterstained with hemotoxalin. Positive cells have brown nuclei (400×). Epidermal thickness FIG. 10 (d) was determined by photographing 5 consecutive H&E sections (400×) and measuring the length of the epidermis at 5 sites within each photograph. The percentage of TUNEL positive cells FIG. 10 (e) and 8 oxoguanine positive cells FIG. 10 (f) was determined by counting all epidermal cells (positive and negative) in five consecutive 400× sections beginning with the site of maximal apoptosis. Carbonyl Protein FIG. 10 (g), Caspase 3/8 FIG. 10 (h) and GSH FIG. 10 (i) levels were determined in skin homogenates and were normalized by mg protein. Carbonyl protein samples were performed in triplicate from pooled homogenates. All graphical data were converted to % increase from control and are presented as mean+sem. Statistical significance was determined by ANOVA followed by a Bonferroni post test with significance set at p<0.05.

[1] = tested on: irradiation induced skin damage; assay: Mouse leg skin irradiated with 6 MeV electron beam, topical F14 emulsion after irradiation: skin damage; format: in vivo, C57BL/6NHsd mice
Experimental: Mouse flank was shaved and depilated 24 hrs. prior to irradiation with 35 GY using a 6 MeV electron beam.
JP4-039 was topically applied in a liposome formulation (F14-JP4-039 Emulsion: JP4-039 (2 mg/ml) was emulsified in sesame seed oil (100 mg/ml), and soy phosphatidyl choline (50 mg/ml) by sonication) 30 minutes after irradiation and daily for the next 3 days. Mice were photographed and skin damage scored by clinical criteria. Leg contracture was measured by comparing maximal extension between control and irradiated legs. Histological characterization of cellular infiltrates and collagen levels was performed.
JP4-039 was topically applied in a the above-described liposome formulation 30 minutes after irradiation. Skin samples taken at 4 hours. Analyzed for apoptosis via caspase 3 and TUNEL. Antioxidant functions evaluated by changes in GSH levels. All quantitative data presented as means±sem and significance determined by ANOVA followed by a Bonferoni post test set at p<0.05.
Materials/Methods: The right legs of C57BL/6NHsd mice were shaved and treated with Nair to remove the fur. Twenty four hours later the right legs were irradiated to doses of 30 or 35 Gy using 6 MeV electron beam, bolused to bring the surface dose to 100%. At 30 minutes after irradiation, 24, 48 and 72 hours, F14 emulsion only or F14-JP4-039 (100 μg in 50 μl) was applied to the skin. Photos were taken for visual evidence of skin damage and leg contracture was measured as a functional evaluation of tissue damage. Histological characterization of skin thickening, cellular infiltrates and collagen evaluation was also performed. To evaluate the mechanism of radiation damage mitigation, skin samples were assayed at 4 hours after irradiation for markers of apoptosis and oxidative stress. Results: Skin damage was scored on day 21 after irradiation. […] Assessment of Irradiation Damage: Skin damage was measured using visual evidence seen from photographs of the skin and measuring leg contracture. […]

[2] = In vivo topical delivery in lipid-based formulation, amount retained in tape-stripped skin; settings: 2 mg/ml in saline with surfactants and egg PC, liposome size 200 nm; tape-stripped skin of topically treated mice
Experimental: For these studies, 2 mg/ml JP4-039 was formulated in saline with a mixture of surfactants with egg PC by sonication to a liposome size of 200 nm. Harvested, tape-stripped (to remove superficial drug) skin from topically treated mice was processed as described above to determine the amount of JP4-039 retained in the skin. We found cutaneous retention to be in the range of 11.7+/−3.1 pmole/mg, a level compatible with therapeutic efficacy.

[3] = tested on: oxidative stress induced skin damage; assay: Mice irradiated with 35 GY, JP4-039 at 0.5, 24 and 48 hours: barrier function (TEWL), fibrosis, thickening; format: in vivo
Experimental: Clinically relevant disruption of skin barrier function results in increased water loss from the skin surface. This can be measured non-invasively by the Transepidermal Water Loss (TEWL) assay. Increasing TEWL values directly correlate with damage to the skin's barrier function.
Groups of mice were irradiated with 35 GY to induce oxidative stress and then treated with JP4-039 or formulation alone 0.5, 24 and 48 hours after exposure. Skin was evaluated 21 days after initial treatment. Damage to skin barrier function was determined by TEWL. Results are reported as % recovery from 35 GY damage defined as (((radiated average−test sample value+0 GY average)/(treated average)*100) (FIG. 18a).
Fibrosis was evaluated histologically by evaluating the extent of collagen infiltration in the skin sections in (FIG. 18b) (100×). Dermal thickness is indicated by the arrows and collagen fibers were identified by Masson's Trichrome staining (blue). Representative H&E stained sections are provided in (FIG. 18c) with arrows showing epidermal thickness (200×). Dermal (FIG. 18d 100×) and epidermal (FIG. 18e) thickness (200×) was quantified at 5 sites within 4 representative histologic images for each mouse using NIH Image J Software. Statistical significance was determined by ANOVA followed by a Bonferroni post test set at p<0.05.

[4] = living human skin explants, topical
[5] = F14 emulsion applied at 30 min after irradiation

## CC(C)C[C@@H](/C=C/CC(=O)NC1CC(C)(C)N([O])C(C)(C)C1)NC(=O)OC(C)(C)C [JP4-039, (S,E)-5-(tert-Butoxycarbonylamino)-7-methyloct-3-enoic Acid-TEMPO]
Human skin; [4]
  depletion of the antioxidant GSH: decreasing
  epidermal thickening associated with oxidative skin damage: reduction
  formation of protein carbonyls: reduction
  radiation induced cellular apoptosis: reduction
Human skin; living human skin samples, 60 GY followed by topical JP4-039
  oxidative damage of human skin: protects human skin from oxidative damage
[1]; [5]
  caspase 3 activity: decreased
  thickening of the skin: decreased
[1]; topical 30 minutes after 35 GY, skin taken at 4 hours, GSH levels
  antioxidant function in the skin: potent antioxidant function
[2]
  cutaneous retention: 11.7 ± 3.1 pmol/mg
[3]; day 21
  fibrosis associated changes (epidermal and dermal thickening, collagen deposition): prevents/mitigates
[3]; day 21, p=0.011
  radiation induced TEWL increases: significantly reversed
